Results taken from publication PMC11544891, “Uncovering the Potential Somatic Angiotensin-Converting Enzyme (sACE) Inhibitory Capacity of Peptides from Acheta domesticus: Insights from In Vitro Gastrointestinal Digestion” (Foods, 2024).
Where “and” joins values, the source holds several entries; their conditions need not be identical. Identical values can stand only once. Like-named read-outs stand apart in the source and are kept apart here. Residues, ends and D or L forms follow the SMILES beside them. No end group written: not given here.

What was measured:
sACE = conditions: cited from earlier work
[1] = biological target: T1, somatic angiotensin-converting enzyme (sACE) (Oryctolagus cuniculus, UniProt P12822); assay: sACE-inhibition fluorimetric assay (o-Abz-Gly-p-Phe(NO2)-Pro-OH substrate); assay type: biochemical, rabbit; conditions: synthetic peptides; mean ± SD, n = 3; read-out: ACE-Inhibitory Capacity Expressed as IC50 (converted)
T1 construct: the ACE working solution was prepared according to Murray et al. [28] using rabbit lung; from tissue; host or cells: rabbit lung
T1 sequence (P12822 34-1310): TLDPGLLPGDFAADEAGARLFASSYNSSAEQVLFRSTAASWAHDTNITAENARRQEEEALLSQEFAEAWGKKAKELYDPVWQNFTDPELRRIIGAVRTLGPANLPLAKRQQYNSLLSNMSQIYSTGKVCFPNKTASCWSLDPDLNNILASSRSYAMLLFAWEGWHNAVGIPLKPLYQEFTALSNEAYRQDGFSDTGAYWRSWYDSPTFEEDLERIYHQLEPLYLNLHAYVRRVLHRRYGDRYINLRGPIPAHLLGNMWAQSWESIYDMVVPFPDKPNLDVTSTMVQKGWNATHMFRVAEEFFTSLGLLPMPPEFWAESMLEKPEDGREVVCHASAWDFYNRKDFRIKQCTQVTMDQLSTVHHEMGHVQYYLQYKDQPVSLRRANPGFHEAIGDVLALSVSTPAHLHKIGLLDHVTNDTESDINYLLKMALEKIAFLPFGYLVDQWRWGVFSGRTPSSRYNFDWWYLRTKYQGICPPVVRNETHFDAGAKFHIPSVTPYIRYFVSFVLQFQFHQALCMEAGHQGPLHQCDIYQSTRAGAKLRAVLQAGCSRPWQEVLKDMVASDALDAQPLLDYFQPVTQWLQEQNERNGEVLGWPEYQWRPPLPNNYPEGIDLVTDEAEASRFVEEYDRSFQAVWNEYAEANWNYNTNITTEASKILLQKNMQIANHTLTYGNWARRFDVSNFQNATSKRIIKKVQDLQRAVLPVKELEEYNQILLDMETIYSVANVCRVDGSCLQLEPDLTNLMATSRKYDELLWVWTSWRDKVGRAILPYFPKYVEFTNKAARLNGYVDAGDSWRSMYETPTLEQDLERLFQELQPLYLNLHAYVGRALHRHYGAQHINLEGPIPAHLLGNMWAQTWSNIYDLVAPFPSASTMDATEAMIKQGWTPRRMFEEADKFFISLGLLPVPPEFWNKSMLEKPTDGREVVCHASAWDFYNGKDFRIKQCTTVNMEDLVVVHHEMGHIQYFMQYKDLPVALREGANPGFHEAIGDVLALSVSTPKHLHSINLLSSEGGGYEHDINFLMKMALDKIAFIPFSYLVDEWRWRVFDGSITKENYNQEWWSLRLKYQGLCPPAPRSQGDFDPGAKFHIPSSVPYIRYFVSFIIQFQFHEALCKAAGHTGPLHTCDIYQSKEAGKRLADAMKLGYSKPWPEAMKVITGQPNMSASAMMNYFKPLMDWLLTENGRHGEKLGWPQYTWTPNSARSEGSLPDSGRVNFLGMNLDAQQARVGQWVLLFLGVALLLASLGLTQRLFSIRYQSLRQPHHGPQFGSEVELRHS
Description: The sACE-inhibitory capacity was determined using a fluorimetric assay, as reported by Tavares et al., with some modifications. Briefly, the ACE working solution was prepared according to Murray et al. using rabbit lung posteriorly diluted in 0.15 M Tris-base buffer (pH 8.3) with 0.1 mM ZnCl2. A total of 40 µL of the working solution was added to each 96-well microplate well (Porvair, Norfolk, UK), then adjusted to 80 µL by adding distilled water to the blank (B), control (C), or samples (S). The enzyme reaction was started by adding 160 µL of 0.45 mM o-Abz-Gly-p-Phe(NO2)-Pro-OH dissolved in 0.15 M Tris-base buffer (pH 8.3) containing 1.125 M NaCl, and the mixture was incubated at 37 °C for 30 min. The fluorescence generated was measured using a multiscan microplate fluorimeter (FLUOstar optima, BMG Labtech, Ortenberg, Germany) with excitation and emission wavelengths of 350 and 420 nm, respectively. Data were processed with the software FLUOstar control (version 1.32 R2, BMG Labtech, Ortenberg, Germany). The assay was performed in triplicate, and the resulting data were subjected to a nonlinear fit using GraphPad Prism 5 to determine the IC50 (half maximal inhibitory concentration) values. The resulting data (n = 3) were expressed as the mean ± SD (standard deviation).

[2] = test system: spontaneously hypertensive rats (SHR); conditions: cited from earlier work; for anti-hypertensive activity in SHR: Table S2, ref [19] of supplement
thoracic aortic rings = test system: thoracic aortic rings; design: method as in earlier work; conditions: Table S2; ref [19] of supplement; cited from earlier work
[3] = Table S2, T. molitor larvae, ref [21] of supplement, read-out: In Vitro (IC50)
[4] = Table S2, peptides from in vitro digestion (pepsin, pancreatin) of edible insects, ref [14] of supplement
[5] = Table S2, ref [17] of supplement, read-out: In Vitro (IC50)
[6] = Table S2, ref [3] of supplement, read-out: In Vitro (IC50)
[7] = peptides found in fermented milks, read-out: IC50 values for sACE

YAN
In Vitro (IC50) (sACE; Table S2, T. molitor larva flour, alcalase, ref [20] of supplement): 17 µg/mL
IC50 (sACE; [3]): 172 µM

AVFPSIVGR [literature peptide from Apis mellifera pupae hydrolysate]
IC50 (sACE; read-out: IC50): 6.64 µM

CC(C)[C@H](NC(=O)[C@@H](N)CC(=O)O)C(=O)N[C@@H](Cc1c[nH]c2ccccc12)C(=O)O [DVW] (H-Asp-Val-Trp-OH)
IC50 [1]: 195 µM and 196 µM

Val-Phe [VF]
IC50 (sACE; Table S2, […], ref [19] of supplement, read-out: In Vitro (IC50)): 120 to 144 µM
anti-hypertensive activity in SHR [2]: anti-hypertensive activity
in vivo antihypertensive capacity [2]: demonstrated in vivo antihypertensive capacity
inhibitory activity in thoracic aortic rings from male Wistar rats (thoracic aortic rings): inhibitory activity

IIAPPER [literature peptide from Gryllodes sigillatu digestion]
IC50 (sACE): 6.93 µg/mL

IIIGW [IIIGW]
IC50 [1]: 54.6 µM and 54.5 µM

KHV
IC50 (sACE; Table S2, ref [8] of supplement, read-out: In Vitro (IC50)): 12.8 µM

GKDAVIV [literature peptide from Schistocerca gregaria digestion]
In Vitro (IC50) (sACE; [4]): 12.82 ± 0.02 µg/mL

CAIAW [CAIAW]
IC50 [1]: 6.56 µM and 6.55 µM

LSRVP
IC50 (sACE; [5]): 52.7 ± 4.04 µM

AAAPVAVAK [literature peptide from Tenebrio molitor larvae digestion]
IC50 (sACE): 8.31 µg/mL

YDDGSYKPH [literature peptide from Tenebrio molitor larvae digestion]
IC50 (sACE): 5.81 µg/mL

YETGNGIK [literature peptide from Schistocerca gregaria digestion]
IC50 (sACE): 3.25 µg/mL

LAPSTIK [literature peptide from Gryllodes sigillatu digestion]
In Vitro (IC50) (sACE; [4]): 11.14 ± 0.08 µg/mL

AVQPCF [AVQPCF]
IC50 [1]: 3.69 µM

VAPEEHPV [literature peptide from Gryllodes sigillatu digestion]
In Vitro (IC50) (sACE; [4]): 18.85 ± 0.05 µg/mL

APPPKK
In Vitro (IC50) (sACE; Table S2, ref [9] of supplement): 47 µg/mL

PPVLVFV [literature peptide from Apis mellifera pupae hydrolysate]
IC50 (sACE; [6]): 47.8 µM

AIGVGAIER [literature peptide from Schistocerca gregaria digestion]
In Vitro (IC50) (sACE; [4]): 14.43 ± 0.02 µg/mL

GNPWM
IC50 (sACE; Table S2, ref [10] of supplement, read-out: In Vitro (IC50)): 21.7 µM

RYL
IC50 (sACE; peptide from Bombyx mori hydrolysates, read-out: IC50): 3.31 µM

PGKVHIT [literature peptide from Apis mellifera pupae hydrolysate]
IC50 (sACE; [6]): 224 µM

AGDDAPR [literature peptide from Tenebrio molitor protein concentrate digestion]
IC50 (sACE): 8.34 µg/mL

FDPFPK (LCFDPFPK) [literature peptide from Schistocerca gregaria digestion]
In Vitro (IC50) (sACE; [4]): 79.25 ± 0.04 µg/mL

ASL
IC50 (sACE; Table S2, ref [5] of supplement, read-out: In Vitro (IC50)): 102 µM

Ala-Val-Phe [AVF]
IC50 (sACE; Table S2, ref [18] of supplement, read-out: In Vitro (IC50)): 2120 µM
IC50 (sACE; Table S2, synthesized peptides, ref [19] of supplement, read-out: In Vitro (IC50)): 1370 to 1430 µM
anti-hypertensive activity in SHR [2]: anti-hypertensive activity
inhibitory activity in thoracic aortic rings from male Wistar rats (thoracic aortic rings): no inhibitory activity

NYVADGLG [literature peptide from Tenebrio molitor larvae digestion]
In Vitro (IC50) (sACE; [4]): 12.09 ± 0.08 µg/mL

NIKY
IC50 (sACE; [3]): 52.2 µM

HILG
IC50 (sACE; [3]): 2820 µM

PIVCF [PIVCF]
IC50 [1]: 4.64 µM and 4.63 µM

FFGT
IC50 (sACE; [5]): 19.4 ± 1.7 µM

CC[C@H](C)[C@H](NC(=O)[C@@H](N)CCC(N)=O)C(=O)N[C@H](C(=O)N[C@@H](Cc1c[nH]c2ccccc12)C(=O)O)C(C)C [QIVW] (H-QIVW-OH)
IC50 [1]: 140 µM

LLKPY
IC50 (sACE; Table S2, ref [2] of supplement, read-out: In Vitro (IC50)): 54.9 µM

VPP
IC50 (sACE; [7]): 9 µM

KVEGDLK [literature peptide from Gryllodes sigillatu digestion]
IC50 (sACE): 3.67 µg/mL

IPP
IC50 (sACE; [7]): 5 µM

QGLGY
IC50 (sACE; [3]): 264 µM

GAMVVH
IC50 (sACE; Table S2, ref [7] of supplement, read-out: In Vitro (IC50)): 19.4 ± 0.21 µM
